Where “and” joins values, the source holds several entries; their conditions need not be identical. Equal values may be shown once. Entries after “also recorded” stand apart in the source; their conditions may differ. Read-outs that look alike come from different tables or passages of the source.
Experiments:
PDE5A1 = PDE5A1 (Homo sapiens, UniProt O76074); test: PDE assay for compound screening (IMAP TR-FRET kit, FAM-cGMP, fluorescence polarization); assay type: biochemical; details: 100 nM cGMP substrate; read-out: IC50 for PDE5
Method: Protocol of PDE Assay for Compound Screening
Materials: IMAPTM TR-FRET Screening Express with Progressive Binding Kit from Molecular Devices (R8160); FAM-Cyclic-3′,5′-GMP from Molecular Devices (R7507); PDE5 inhibitors.
Step 1: A dilution series of the inhibitors ranging from 300 pM to 10 μM in 1× PDE Assay Buffer are made. Subsequently, FAM-cGMP is diluted to 200 nM in 1×PDE Assay Buffer. PDE5A1 enzymes are then diluted to 0.125 ng/μl in 1×PDE Assay Buffer.
Step 2: The following components are added to a low binding black plate: a) […] of 200 nM FAM-cGMP (Final concentration will be 100 nM); b) 5 μl of the compounds (Final concentration=30 pM to 1 μM); c) 20 μl of PDE5A1 (0.125 ng/l) (Final amount=2.5 ng/reaction). The components are mixed and incubated at room temp. for 1 hour.
Step 3: A 1× reagent-binding buffer (75% 1× Binding Buffer A and 25% 1× Binding Buffer B) is then prepared followed by a Binding Solution that is prepared by diluting Binding Reagent with 1× reagent-binding Buffer (1:600). 120 μl of Binding Solution is then added to each well and the plate is incubated at room temperature for 1 hour.
Step 4: Fluorescence polarization is measured at excitation of 485 nm and emission of 520 nm in BioTek Synergy™ 2 microplate reader.

cGMP = details: sildenafil 3 mg/kg; cited from earlier work
APP/PS1 mice = test: Morris water maze and probe trial (reference memory); assay type: in vivo, mouse
Method: To investigate sildenafil effect on long-term memory, reference memory was tested with a Morris water maze task that is known to require hippocampal function^A20 and is impaired after 6 months of age in the APP/PS1 mice^A12. Vehicle-treated transgenic mice needed more time to find the hidden platform after six sessions compared to WT littermates (FIG. 3C). […] This task is performed after the sixth hidden-platform session. The platform is removed from the water and the animals are allowed to search for 60 seconds. A mouse, knowing that the platform was in a certain position, will trawl repeatedly over that position looking for it. […] The amount of time spent in each quadrant of the maze can be used to evaluate the spatial bias of an animal's search pattern. Vehicle-treated WT mice spent more time in the target quadrant (TQ), where the platform had been located during training than in other quadrants, than in the adjacent quadrant to the right (AR), in the adjacent quadrant to the left (AL), or in the opposite quadrant (OQ) (FIG. 3D). Also, sildenafil improved the performance of the APP/PS1 mice which searched more in the quadrant where the platform had been located during training than in other quadrants (FIG. 3D). […] Sildenafil-treated WT mice remembered where the platform was the previous days and spent about the same time as vehicle-treated WT littermates. […] Behavioral Studies-Reference Memory: The task studied with the Morris water maze has been previously described^12. Briefly, mice were trained in 2 daily sessions (4 hours apart), each consisting of 3 trials (1 minute each), for 3 days. Time required to reach the hidden platform was recorded. To test the retention of the spatial memory, 4 probe trials were performed after the training with the platform […]. The maze was divided into 4 quadrants. The percent of time spent in the quadrant that previously contained the platform was recorded and analyzed with a video tracking system ([…] Image).

[1] = in vivo, cited from earlier work
[2] = humans; cited from earlier work
[3] = system: APP processing (APP, sAPPα, sAPPβ, CT83, CT99); test: Western blot of APP full length and fragments in brain; assay type: in vivo, mouse; design: concentration or dose not given beside the values
Excerpt: Aβ originates from APP through a proteolytic process catalyzed by secretases, producing different fragments with characteristic functions^A24. APP is first cleaved by α and β secretases that generate soluble extracellular fragments, named α-APPs and β-APPs, and three forms of carboxyterminal fragments (CTFs): C83 by α-secretase cleavage, C89 and C99 by β-secretase cleavage^A25, A26. CTFs are substrates of γ-secretase generating C-terminal peptides of 57-58 residues (APP intracellular domain, AID) and Aβ fragments from CTFβ^A27. To assess whether the decrease in Aβ levels was related to changes in APP processing [see FIG. 20], western blot analyses on mice brain cortex for full length APP and its fragments was performed.
APP levels were found unchanged also in 7-10 months old transgenic mice (FIGS. 7B-7C). They have been treated with daily injections of sildenafil for 3 weeks at age of 3 months. […] Moreover, a decrease in sAPPβ in transgenic mice treated with sildenafil was observed (FIGS. 7B, 7E) showing a down-regulation of BACE activity. […] Thus, without being bound by theory, the reduction in Aβ levels by sildenafil is due to an action of the inhibitor onto α- and β-secretase activity.
Mice brains were homogenized in buffer (20 mM tris base, 1 mM EDTA, 1 mM EGTA, 250 mM sucrose) containing protease inhibitors. Part of the homogenates was ultracentrifugated at 100,000 g for 1 h and the supernatants were used to analyze the sAPPα and the sAPPβ fragments. The protein concentration in each homogenate was quantified to analyze the equal amounts of protein from each sample. Samples were loaded into the wells of a 4-12% Bis-Tris precast gel, electrophoresed and transferred according to manufacturer's protocol. After Ponceau S staining, membranes were washed and incubated in 5% non-fat milk powder in PBS for 1 h at room temperature. Then, they were incubated overnight at 4° C. with the following primary antibodies, diluted in goat serum 5% in PBS: mouse 22C11 for APP full length detection (1:4000, Sigma); mouse sAPPα and Swedish sAPPβ (1:4000 and 1:1000, IBL), rabbit AbD for CTFs (1:250, Zymed), mouse Tubulin as control (1:20.000, Sigma). After overnight incubation, membranes were washed 3 times in PBS for 30 minutes and incubated with goat anti-mouse or goat-anti-rabbit antibody, diluted in 5% non-fat milk powder in PBS (1:4000 and 1:2000). After 30 minutes washing in PBS, radiographic detection was performed after exposure to ECL (Pierce).

[4] = APP/PS1, 3 mg/Kg i.p. for 3 weeks at 3 months
[5] = APP/PS1 previously treated with sildenafil
[6] = WT previously treated with sildenafil
[7] = WT, 3 mg/Kg i.p. for 3 weeks at 3 months
[8] = treated at 3 months, tested at 6-8 months
[9] = 3-month-old APP/PS1 treated with sildenafil
[10] = APP/PS1 at 7-10 months, sildenafil for 3 weeks at 3 months

COc1ccc(CNc2c(CO)cnc3c(C4CC4)cc(C#N)cc23)cc1Cl [YF012403, 4-(3-chloro-4-methoxybenzylamino)-8-cyclopropyl-3-(hydroxymethyl)-quinoline-6-carbonitrile]
IC50 (PDE5A1): 1.2 nM and 0.27 nM

CCCc1nn(C)c2c(=O)[nH]c(-c3cc(S(=O)(=O)N4CCN(C)CC4)ccc3OCC)nc12 [sildenafil, 5-[2-ethoxy-5-(4-methyl-1-piperazinylsulphonyl)phenyl]-1-methyl-3-n-propyl-1,6-dihydro-7H-pyrazolo[4,3-d]pyrimidin-7-one]
cGMP concentration in the hippocampus (cGMP): ~2.5 µM
minimum time needed to improve performance with the MWM (APP/PS1 mice; 3 mg/kg): 2 weeks
minimum time needed to improve performance with the probe trial (APP/PS1 mice; 3 mg/kg): 2 weeks
Morris water maze, time to find the hidden platform after six sessions (APP/PS1 mice; [4]): 32.92 ± 3.50 s
time to platform as % of vehicle-treated WT mice (APP/PS1 mice; [4]): ~114%
probe test, % of time spent in target quadrant (TQ) (APP/PS1 mice; [5]): 32.25±0.58%
time in TQ as % of vehicle-treated WT littermates (APP/PS1 mice; [5]): ~97%
probe test, % of time spent in target quadrant (TQ) (APP/PS1 mice; [6]): 33.35±1.38%
time in TQ as % of vehicle-treated WT littermates (APP/PS1 mice; [6]): ~100%
Morris water maze, time to find the hidden platform (APP/PS1 mice; [7]): 25.64 ± 3.16 s
time to platform as % of vehicle-treated WT mice (APP/PS1 mice; [7]): ~89%
minimum concentration needed to improve performance with the MWM (APP/PS1 mice; [8]): 3 mg/kg
minimum concentration needed to improve performance with the probe trial (APP/PS1 mice; [8]): 3 mg/kg
ability to cross the BBB in words [1]: reported to cross the blood brain barrier; also recorded: reported to cross the BBB
ability to cross the BBB in words ([1]; listed as Sildenafil): reported to cross the BBB
in vivo half-life [2]: ~4 h
APP full length, % of control [3, 9]: 125.75±4.44%
CT83, % of control [3, 9]: 74.5±6.73%
CT99, % of control [3, 9]: 95.25±5.66%
sAPPα, % of control [3, 9]: 86.25±5.02%
sAPPβ, % of control [3, 9]: 43.25±3.90%
APP full length, % of control [3, 10]: 107.4±3.88%
CT83, % of control [3, 10]: 82.75±6.78%
CT99, % of control [3, 10]: 87.2±7.63%
sAPPα, % of control [3, 10]: 153.65±11.95%
sAPPβ, % of control [3, 10]: 25.6±2.83%

Source: patent publication US9974782B2, “Phosphodiesterase inhibitors and uses thereof” (THE TRUSTEES OF COLUMBIA UNIVERSITY IN THE CITY OF NEW YORK, priority 2008, dated 2018)
